Laboratory results published in ChEMBL document CHEMBL3758115, “Bacaryolanes A-C, Rare Bacterial Caryolanes from a Mangrove Endophyte” (2015).

Columns and labels:
Bacillus spizizenii [1] = experiment: Antibacterial activity against Bacillus subtilis ATCC 6633 at 50 ug/disk after 24 hrs; assay type: functional; conditions: ATCC 6633, 24 h, read-out: IZ
Bacillus spizizenii [2] = experiment: Antibacterial activity against Bacillus subtilis ATCC 6633 at 0.25 ug/disk after 24 hrs; assay type: functional; conditions: ATCC 6633, 24 h, read-out: IZ

Compound	zone of inhibition at 50 µg/disc (Bacillus spizizenii [1]) [mm]	zone of inhibition at 0.25 µg/disc (Bacillus spizizenii [2]) [mm]
CC1(C)C[C@@H]2[C@@H]1[C@@H](O)C[C@@]1(C)CCC[C@]2(O)C1	10	
O=C(N[C@H](CO)[C@H](O)c1ccc([N+](=O)[O-])cc1)C(Cl)Cl [CHLORAMPHENICOL]		28
